Results: US9067898B1, “Isothiazole derivatives as GPR120 agonists for the treatment of type II diabetes” (Janssen Pharmaceutica NV, priority 2014, dated 2015)

molecular target: T1, Human GPR120 short form (Homo sapiens, UniProt Q5NUL3); test: Human GPR120 calcium flux assay (FLIPR), Procedure Calcium A; assay type: cell-based; details: HEK-293 cells expressing human GPR120 short form, 2500 cells/well; read-out: GPR120 Ca2+ Assay A EC50
T1 construct: expressed in transfected cells
T1 sequence (Q5NUL3 1-361): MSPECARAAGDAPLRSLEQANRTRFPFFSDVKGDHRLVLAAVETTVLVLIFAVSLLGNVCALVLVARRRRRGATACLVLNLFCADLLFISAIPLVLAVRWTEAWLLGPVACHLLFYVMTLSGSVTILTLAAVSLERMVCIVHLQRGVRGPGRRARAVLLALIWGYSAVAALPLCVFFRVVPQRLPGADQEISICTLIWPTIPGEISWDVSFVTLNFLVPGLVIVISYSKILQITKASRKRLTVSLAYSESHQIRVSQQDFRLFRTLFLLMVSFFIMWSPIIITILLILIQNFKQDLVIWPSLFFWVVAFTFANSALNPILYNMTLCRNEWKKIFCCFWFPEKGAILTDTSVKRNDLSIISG
Source text: This in vitro assay serves to assess test compound agonist activity against the short splice variant (SVS with Accession number NM_001195755.1 confirmed by sequencing data) of the GPR120 receptor. The Human Short splice variant #2 (NM_001195755.1) is missing an in-frame coding exon compared to variant 1 (the Human Long splice variant NM_181745.3), resulting in a shorter isoform (GPR120-S) lacking a 16 aa protein segment compared to isoform GPR120-L. The assay platform utilizes HEK-293 cells stably transfected to express the Human GPR120 short form. These cells are first loaded with the Ca^+2 sensitive dye, Fluo-4 NW. Upon stimulation, intracellular released Ca^+2 can bind to the dye and alter its fluorescence intensity. This increase in fluorescence signal, and thus the flux in intracellular [Ca^2+], is detected and quantitated by fluorescence imaging using a FLIPR reader. The effect of the agonist is measured as a function of concentration and used to calculate an EC50 based upon a response curve.
In this procedure 2500 cells/well were employed.
A Human GPR120 clone (Genbank accession number NM_001195755.1) was placed into the pcDNA3.1 mammalian expression vector carrying the neomycin resistance gene. A stable mammalian cell was generated by placing the above clone into a HEK293 background. Clonal cells responding to long chain fatty acids had expression levels of GPR120 confirmed by RT-qPCR. Human HEK-GPR120 cells were cultured in Dulbecco's Modified Eagle's Medium (DMEM)/F12 medium supplemented with 10% fetal bovine serum (FBS), 1% L-Glutamine and 1% penicillin/streptomycin and 0.5 mg/ml G-418. Cells were split 2 times a week to keep the cells in the log-phase growth.
In preparation for the assay, HEK cells stably transfected with Human GPR120 (2.5K cells per well in 25 uL growth medium) were seeded into 384-well plates and then incubated overnight (37° C., 5% CO2). The next day, the media was changed to 20 μL assay buffer and the cell starved for 1 h at 37° C. The dye loading solution (2× dye) was prepared using 10 mL assay buffer, 100 μL of 250 mM probenecid, 1 bottle of Component A, and 20 μl of dye in DMSO. Twenty μL of the 2× dye loading buffer was then added to each well. The plates were incubated at 37° C. for 30 min, then at room temperature for an additional 15 minutes, before performing the assay on FLIPR. Test compounds were prepared in assay buffer (2 uL of cpd+198 uL assay buffer, final DMSO in assay plate is 0.2%) at the desired concentration, more particularly at 100, 50, 25, 12.5, 6.25, 3.125, 1.562, 0.781, 0.391, 0.195, 0.098, 0.049, 0.024 and 0.012 μM.
The assay was performed on a FLIPR plate reader using the following parameters. Baseline was read for 10 seconds at 1 sec intervals. The program was set to transfer 10 μL of ligand from compound plate to cell plate after baseline reading. Aspiration was executed at: 10 μL/sec speed, 4.6 μL height; Dispensing was executed at: 30 μL/sec speed, 45 μL height. After compound addition, each well was read for 300 sec, with measurements collected at 1 sec intervals.
The kinetic data from the FLIPR was based upon a 5 minute window for data collection. The fluorescence of each sample well was used for individual calculations of a normalized RFU value, which was defined as maximum response minus the minimum response. The normalized fluorescence reading (RFU) was calculated as follows: RFU=Fmax−Fmin The data were fitted to a sigmoidal dose-response curve with a variable Hill slope (<2) using nonlinear regression with GraphPad Prism 5.0 to calculate the EC50 values. The Fitting Equation was: Y=Bottom+(Top−Bottom)/(1+10^((Log EC50−X)*HillSlope)), where X is the log of the concentration and Y is the response.

First: CCc1ccc(-c2cc(C(F)(F)F)sc2COc2c(F)cc(CCC(=O)O)cc2F)cc1 [Cpd 22, 3-(4-((3-(4-ethylphenyl)-5-(trifluoromethyl)thiophen-2-yl)methoxy)-3,5-difluorophenyl)propanoic acid]
Second: OCCCc1cc(F)c(OCc2sc(F)cc2-c2ccc(Cl)cc2)c(F)c1 [Cpd 18, 3-(4-[[3-(4-chlorophenyl)-5-fluorothiophen-2-yl]methoxy]-3,5-difluorophenyl)propan-1-ol]
The EC50 of the first is 1.8-fold higher: 924 nM for the first, 518 nM for the second.

`O=C(O)CCc1cc(F)c(OCc2csnc2-c2ccc(Cl)s2)c(F)c1` [Cpd 202, 3-(4-((3-(5-chlorothiophen-2-yl)isothiazol-4-yl)methoxy)-3,5-difluorophenyl)propanoic acid] and `Cc1c(CCC(=O)O)ccc(OCc2csnc2-c2ccc(Cl)s2)c1C` [Cpd 204, 3-(4-((3-(5-chlorothiophen-2-yl)isothiazol-4-yl)methoxy)-2,3-dimethylphenyl)propanoic acid] are within 1.5-fold of each other in EC50: 468 nM for the first, 496 nM for the second.

Compared with `CCc1ccc(-c2nsc(C(F)(F)F)c2COc2ccc(CCC(=O)O)c(F)c2C(F)(F)F)cc1` [Cpd 157, 3-(4-[[3-(4-ethylphenyl)-5-(trifluoromethyl)-1,2-thiazol-4-yl]methoxy]-2-fluoro-3-(trifluoromethyl)phenyl)propanoic acid], `CCc1ccc(-c2nsc(C(F)(F)C(F)(F)F)c2COc2ccc(CCC(=O)O)c(C)c2C)cc1` [Cpd 192, 3-(4-[[3-(4-ethylphenyl)-5-(pentafluoroethyl)-1,2-thiazol-4-yl]methoxy]-2,3-dimethylphenyl)propanoic acid] is 1.8-fold higher in EC50: 188 nM for the first, 332 nM for the second.

Compared with `COc1ccc(-c2snc(Cl)c2COc2ccc(CCC(=O)O)c(C)c2C)cc1` [Cpd 186, 3-(4-[[3-chloro-5-(4-methoxyphenyl)-1,2-thiazol-4-yl]methoxy]-2,3-dimethylphenyl)propanoic acid], `CCc1ccc(-c2sncc2COc2ccc(CCC(=O)O)c(C)c2C)cc1` [Cpd 158, 3-(4-[[5-(4-ethylphenyl)-1,2-thiazol-4-yl]methoxy]-2,3-dimethylphenyl)propanoic acid] is 1.6-fold lower in EC50: 303 nM for the first, 191 nM for the second. The second is the more potent here.

First: Cc1c(/C=C/C(=O)O)ccc(OCc2c(-c3ccc(Cl)cc3)nsc2C(F)(F)F)c1C [Cpd 244, (E)-3-(4-((3-(4-chlorophenyl)-5-(trifluoromethyl)isothiazol-4-yl)methoxy)-2,3-dimethylphenyl)acrylic acid]
Second: Cc1c(CCC(=O)O)ccc(OCc2c(-c3ccc(C(C)(F)F)cc3)nsc2C(F)(F)F)c1C [Cpd 178, 3-[4-([3-[4-(1,1-difluoroethyl)phenyl]-5-(trifluoromethyl)-1,2-thiazol-4-yl]methoxy)-2,3-dimethylphenyl]propanoic acid]
The EC50 of the first is higher: over 5000 nM for the first, 263 nM for the second. The second is the more potent here.

First: CCc1ccc(-c2nsc(C(F)(F)F)c2COc2ccc(CCC(=O)O)c3c2CCC3)cc1 [Cpd 103, 3-(7-[[3-(4-ethylphenyl)-5-(trifluoromethyl)-1,2-thiazol-4-yl]methoxy]-2,3-dihydro-1H-inden-4-yl)propanoic acid]
Second: CCc1ccc(-c2nsc(C(F)(F)F)c2COc2ccc(CCC(=O)O)c3ccccc23)cc1 [Cpd 130, 3-(4-[[3-(4-ethylphenyl)-5-(trifluoromethyl)-1,2-thiazol-4-yl]methoxy]naphthalen-1-yl)propanoic acid]
The EC50 of the first is 1.6-fold lower: 80 nM for the first, 125 nM for the second.

`CCc1ccc(-c2csc(C(F)(F)F)c2COc2ccc(CCC(=O)O)c(C)c2C)cc1` [Cpd 54, 3-(4-((4-(4-ethylphenyl)-2-(trifluoromethyl)thiophen-3-yl)methoxy)-2,3-dimethylphenyl)propanoic acid] and `Cc1c(CCC(=O)O)ccc(OCc2c(-c3ccc(Cl)cc3)csc2C(F)(F)F)c1C` [Cpd 57, 3-(4-((4-(4-chlorophenyl)-2-(trifluoromethyl)thiophen-3-yl)methoxy)-2,3-dimethylphenyl)propanoic acid] are within 1.5-fold of each other in EC50: 199 nM for the first, 278 nM for the second.

Going from `CCc1ccc(-c2nsc(-c3ccccc3)c2COc2ccc(CCC(=O)O)c(C)c2C)cc1` [Cpd 233, 3-(4-[[3-(4-ethylphenyl)-5-phenyl-1,2-thiazol-4-yl]methoxy]-2,3-dimethylphenyl)propanoic acid] to `CCc1ccc(-c2nsc(C3CC3)c2COc2ccc(CCC(=O)O)c(C)c2C)cc1` [Cpd 149, 3-(4-[[5-cyclopropyl-3-(4-ethylphenyl)-1,2-thiazol-4-yl]methoxy]-2,3-dimethylphenyl)propanoic acid], the EC50 falls from 1100 nM to 167 nM (6.6-fold). The second is the more potent here.

First: C#Cc1ccc(-c2nscc2COc2ccc(CCC(=O)O)c(C)c2C)cc1 [Cpd 161, 3-(4-((3-(4-ethynylphenyl)isothiazol-4-yl)methoxy)-2,3-dimethylphenyl)propanoic acid]
Second: CCc1ccc(-c2nsc(C(C)(F)F)c2COc2ccc(CCC(=O)O)c(C)c2C)cc1 [Cpd 200, 3-(4-[[5-(1,1-difluoroethyl)-3-(4-ethylphenyl)-1,2-thiazol-4-yl]methoxy]-2,3-dimethylphenyl)propanoic acid]
The EC50 of the first is 2.2-fold lower: 202 nM for the first, 453 nM for the second.

Compared with `Cc1c(CCC(=O)O)ccc(OCc2sc(Cl)cc2-c2ccc(Cl)cc2)c1C` [Cpd 6, 3-(4-[[5-chloro-3-(4-chlorophenyl)thiophen-2-yl]methoxy]-2,3-dimethylphenyl) propanoic acid], `CCc1ccc(-c2sc(C)c(C(F)(F)F)c2COc2ccc(CCC(=O)O)c(C)c2C)cc1` [Cpd 61, 3-(4-[[2-(4-ethylphenyl)-5-methyl-4-(trifluoromethyl)thiophen-3-yl]methoxy]-2,3-dimethylphenyl) propanoic acid] is 6.3-fold higher in EC50: 90 nM for the first, 564 nM for the second. The first is the more potent here.

Going from `CCc1ccc(-c2nsc(C(F)(F)F)c2COc2ccc3c(c2)CCC3CC(=O)O)cc1` (stereo not shown) [Cpd 176, 2-(5-[[3-(4-ethylphenyl)-5-(trifluoromethyl)-1,2-thiazol-4-yl]methoxy]-2,3-dihydro-1H-inden-1-yl)acetic acid] to `CCc1ccc(-c2nsc(C(F)(F)F)c2COc2ccc3c(c2)OCC3CCO)cc1` (stereo not shown) [Cpd 220, 2-(6-[[3-(4-ethylphenyl)-5-(trifluoromethyl)-5H-1[3],2-thiazol-4-yl]methoxy]-2,3-dihydro-1-benzofuran-3-yl)ethan-1-ol], the EC50 rises from 261 nM to 702 nM (2.7-fold).

`O=C(O)CCc1cc(F)c(OCc2c(C3CCOC3)nsc2C(F)(F)F)c(F)c1` (stereo not shown) [Cpd 214, 3-(3,5-difluoro-4-((3-(tetrahydrofuran-3-yl)-5-(trifluoromethyl)isothiazol-4-yl)methoxy)phenyl)propanoic acid] and `O=C(O)CCc1cc(Br)c(OCc2c(-c3ccc(Cl)cc3)nsc2C(F)(F)F)c(Br)c1` [Cpd 241, 3-(3,5-dibromo-4-[[3-(4-chlorophenyl)-5-(trifluoromethyl)-1,2-thiazol-4-yl]methoxy]phenyl) propanoic acid] are within 1.5-fold of each other in EC50: 606 nM for the first, 450 nM for the second.

Work on `Cc1ccc(-c2snc(C(F)(F)F)c2COc2ccc(CCC(=O)O)c(C(F)(F)F)c2)c(C)c1` [Cpd 232, 3-(4-[[5-(2,4-dimethylphenyl)-3-(trifluoromethyl)-1,2-thiazol-4-yl]methoxy]-2-(trifluoromethyl)phenyl)propanoic acid] yielded an EC50 of 1090 nM.
